Laboratory results: patent US20250145633A1, “SUBSTITUTED FURANOPYRIMIDINE COMPOUNDS AS PDE1 INHIBITORS” (Dart NeuroScience, LLC, priority 2017, published 2025)

Target: human PDE1B enzyme (Homo sapiens (Human), UniProt Q01064)
Experiment: IMAP TR-FRET PDE1B enzymatic assay
Type: biochemical
Details: negative log of half-maximal molar inhibitory concentration; 200 nM FAM-cAMP; values given as bins
Summary of the method: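 Full-length GST-tagged human PDE1B (250 pg/well) in IMAP BSA buffer with 10 U/ml calmodulin and 2.5 mM CaCl2; compound pre-incubated 5 min at room temperature, then 200 nM (final) FAM-cAMP for 30 min. IMAP binding reagent/Tb added, 1 h; TR-FRET 520/490 ratio read. IC50 from sigmoidal dose-response fit.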

For `Cc1cccc(C2CCN(C(=O)c3c(C)oc4ncnc(NC5(C)CC5)c34)C2)c1` (stereo not drawn) [Example 395, 6-Methyl-N-(1-methylcyclopropyl)-5-[3-(3-methylphenyl)pyrrolidine-1-carbonyl]furo[2,3-d]pyrimidin-4-amine], the “PDE1b (pIC50)” value was greater than 8.
`Cc1oc2ncnc(NC3(C)CC3)c2c1C(=O)N1CC=C(c2cnc(F)s2)CC1` [Example 783, 5-[4-(2-Fluoro-1,3-thiazol-5-yl)-1,2,3,6-tetrahydropyridine-1-carbonyl]-6-methyl-N-(1-methylcyclopropyl)furo[2,3-d]pyrimidin-4-amine] was tested, and the “PDE1b (pIC50)” value was greater than 8.
In the case of `Cc1oc2ncnc(NC3(C)CC3)c2c1C(=O)NC1CCN(C)CC1` [Example 193, 6-Methyl-4-[(1-methylcyclopropyl)amino]-N-(1-methylpiperidin-4-yl)furo[2,3-d]pyrimidine-5-carboxamide], the “PDE1b (pIC50)” value is reported as less than 6.
With `Cc1oc2ncnc(NC3(C)CC3)c2c1C(=O)N1CCC(c2cccc(Br)n2)C1` (stereo not drawn) [Example 372, 5-[3-(6-Bromopyridin-2-yl)pyrrolidine-1-carbonyl]-6-methyl-N-(1-methylcyclopropyl)furo[2,3-d]pyrimidin-4-amine] the “PDE1b (pIC50)” value was greater than 8.
With `COc1ccnc(C2CCN(C(=O)c3c(C)oc4ncnc(NC5(C)CC5)c34)CC2)n1` [Example 345, 5-[4-(4-Methoxypyrimidin-2-yl)piperidine-1-carbonyl]-6-methyl-N-(1-methylcyclopropyl)furo[2,3-d]pyrimidin-4-amine] the “PDE1b (pIC50)” value was greater than 8.
`COc1cc(CNC(=O)c2c(C)oc3ncnc(NC4(C)CC4)c23)nc(C)n1` [Example 667, N-[(6-Methoxy-2-methylpyrimidin-4-yl)methyl]-6-methyl-4-[(1-methylcyclopropyl)amino]furo[2,3-d]pyrimidine-5-carboxamide] was tested, and the “PDE1b (pIC50)” value was greater than 8.

Same assay, conditions: negative log of half-maximal molar inhibitory concentration; 200 nM FAM-cAMP; values given as bins; read-out: PDE1b (pIC50) (converted)

`COc1cc(CNC(=O)c2c(C)oc3ncnc(NC4(C)CC4)c23)ccc1F` [Example 336, N-[(4-Fluoro-3-methoxyphenyl)methyl]-6-methyl-4-[(1-methylcyclopropyl)amino]furo[2,3-d]pyrimidine-5-carboxamide] and `Cc1oc2ncnc(NC3(C)CC3)c2c1C(=O)NCc1ccc(C#N)c(F)c1` [Example 87, N-[(4-Cyano-3-fluorophenyl)methyl]-6-methyl-4-[(1-methylcyclopropyl)amino]furo[2,3-d]pyrimidine-5-carboxamide] fall in the same range of IC50: 0.01 to 0.1 µM for the first, 0.01 to 0.1 µM for the second.

`Cc1oc2ncnc(NC3(C)CC3)c2c1C(=O)N1CCc2c(ncn(CF)c2=O)C1` [Example 16, 3-(Fluoromethyl)-7-{6-methyl-4-[(1-methylcyclopropyl)amino]furo[2,3-d]pyrimidine-5-carbonyl}-3H,4H,5H,6H,7H,8H-pyrido[3,4-d]pyrimidin-4-one] and `Cc1oc2ncnc(NC3(C)CC3)c2c1C(=O)N1CCc2cnc(C(C)C)nc2C1` [Example 294, 6-Methyl-N-(1-methylcyclopropyl)-5-[2-(propan-2-yl)-5H,6H,7H,8H-pyrido[3,4-d]pyrimidine-7-carbonyl]furo[2,3-d]pyrimidin-4-amine] fall in the same range of IC50: 0.01 to 0.1 µM for the first, 0.01 to 0.1 µM for the second.

`Cc1oc2ncnc(NC3(C)CC3)c2c1C(=O)N1CCc2sccc2C1` [Example 273, 6-Methyl-N-(1-methylcyclopropyl)-5-{4H,5H,6H,7H-thieno[3,2-c]pyridine-5-carbonyl}furo[2,3-d]pyrimidin-4-amine] and `Cc1oc2ncnc(NC3(C)CC3)c2c1C(=O)N1CCc2cnccc2C1` [Example 668, 6-Methyl-N-(1-methylcyclopropyl)-5-(1,2,3,4-tetrahydro-2,6-naphthyridine-2-carbonyl)furo[2,3-d]pyrimidin-4-amine] fall in the same range of IC50: 0.01 to 0.1 µM for the first, 0.01 to 0.1 µM for the second.

`Cc1oc2ncnc(NC3(C)CC3)c2c1C(=O)NCC1(C)CC1` [Example 413, 6-Methyl-4-[(1-methylcyclopropyl)amino]-N-[(1-methylcyclopropyl)methyl]furo[2,3-d]pyrimidine-5-carboxamide] and `CCCCCNC(=O)c1c(C)oc2ncnc(NC3(C)CC3)c12` [Example 167, 6-Methyl-4-[(1-methylcyclopropyl)amino]-N-pentylfuro[2,3-d]pyrimidine-5-carboxamide] fall in the same range of IC50: 0.01 to 0.1 µM for the first, 0.01 to 0.1 µM for the second.

Compared with `Cc1ccc(NC(=O)c2c(C)oc3ncnc(NC4(C)CC4)c23)nc1` [Example 438, 6-Methyl-4-[(1-methylcyclopropyl)amino]-N-(5-methylpyridin-2-yl)furo[2,3-d]pyrimidine-5-carboxamide], `Cc1noc(NC(=O)c2c(C)oc3ncnc(NC4(C)CC4)c23)n1` [Example 452, 6-Methyl-N-(3-methyl-1 2 4-oxadiazol-5-yl)-4-[(1-methylcyclopropyl)amino]furo[2,3-d]pyrimidine-5-carboxamide] is lower in IC50: 0.1 to 1 µM for the first, 0.01 to 0.1 µM for the second.

`COc1ccccc1CN(C)C(=O)c1c(C)oc2ncnc(NC3(C)CC3)c12` [Example 528, N-[(2-Methoxyphenyl)methyl]-N,6-dimethyl-4-[(1-methylcyclopropyl)amino]furo[2,3-d]pyrimidine-5-carboxamide] and `CCN(Cc1ccc(OC)cc1)C(=O)c1c(C)oc2ncnc(NC3(C)CC3)c12` [Example 489, N-ethyl-N-[(4-Methoxyphenyl)methyl]-6-methyl-4-[(1-methylcyclopropyl)amino]furo[2,3-d]pyrimidine-5-carboxamide] fall in the same range of IC50: 0.01 to 0.1 µM for the first, 0.01 to 0.1 µM for the second.

`Cc1oc2ncnc(NC3(C)CC3)c2c1C(=O)N1CCC(c2ccn(C(C)C)n2)CC1` [Example 781, 6-Methyl-N-(1-methylcyclopropyl)-5-{4-[1-(propan-2-yl)-1H-pyrazol-3-yl]piperidine-1-carbonyl}furo[2,3-d]pyrimidin-4-amine] and `Cc1oc2ncnc(NC3(C)CC3)c2c1C(=O)N1CCC(c2ncn(C)n2)CC1` [Example 777, 6-Methyl-5-[4-(1-methyl-1H-1,2,4-triazol-3-yl)piperidine-1-carbonyl]-N-(1-methylcyclopropyl)furo[2,3-d]pyrimidin-4-amine] fall in the same range of IC50: 0.01 to 0.1 µM for the first, 0.01 to 0.1 µM for the second.

`Cc1oc2ncnc(NC3(C)CC3)c2c1C(=O)N1CCc2c(ncnc2C2CCOCC2)C1` [Example 803, 6-Methyl-N-(1-methylcyclopropyl)-5-[4-(oxan-4-yl)-5H,6H,7H,8H-pyrido[3,4-d]pyrimidine-7-carbonyl]furo[2,3-d]pyrimidin-4-amine] and `Cc1oc2ncnc(NC3(C)CC3)c2c1C(=O)N1CCc2c(ncnc2N2CCOCC2)C1` [Example 787, 6-Methyl-N-(1-methylcyclopropyl)-5-[4-(morpholin-4-yl)-5H,6H,7H,8H-pyrido[3,4-d]pyrimidine-7-carbonyl]furo[2,3-d]pyrimidin-4-amine] fall in the same range of IC50: 0.01 to 0.1 µM for the first, 0.01 to 0.1 µM for the second.

`Cc1oc2ncnc(NC3(C)CC3)c2c1C(=O)N1CCN(c2ncc(F)cn2)CC1` [Example 153, 5-[4-(5-Fluoropyrimidin-2-yl)piperazine-1-carbonyl]-6-methyl-N-(1-methylcyclopropyl)furo[2,3-d]pyrimidin-4-amine] and `Cc1oc2ncnc(NC3(C)CC3)c2c1C(=O)N1CCN(c2cncnc2)CC1` [Example 381, 6-Methyl-N-(1-methylcyclopropyl)-5-[4-(pyrimidin-5-yl)piperazine-1-carbonyl]furo[2,3-d]pyrimidin-4-amine] fall in the same range of IC50: 0.01 to 0.1 µM for the first, 0.01 to 0.1 µM for the second.

Compared with `Cc1nc(C)c(C2CCN(C(=O)c3c(C)oc4ncnc(NC5(C)CC5)c34)CC2)[nH]1` [Example 780, 5-[4-(2,4-Dimethyl-1H-imidazol-5-yl)piperidine-1-carbonyl]-6-methyl-N-(1-methylcyclopropyl)furo[2,3-d]pyrimidin-4-amine], `COc1nc(C(C)C)nc2c1CN(C(=O)c1c(C)oc3ncnc(NC4(C)CC4)c13)C2` [Example 688, 5-[4-Methoxy-2-(propan-2-yl)-5H,6H,7H-pyrrolo[3,4-d]pyrimidine-6-carbonyl]-6-methyl-N-(1-methylcyclopropyl)furo[2,3-d]pyrimidin-4-amine] is lower in IC50: 0.1 to 1 µM for the first, 0.01 to 0.1 µM for the second.

`Cc1oc2ncnc(NC3(C)CC3)c2c1C(=O)NCc1ccnn1C` [Example 102, 6-Methyl-N-[(1-methyl-1H-pyrazol-5-yl)methyl]-4-[(1-methylcyclopropyl)amino]furo[2,3-d]pyrimidine-5-carboxamide] and `Cc1oc2ncnc(NC3(C)CC3)c2c1C(=O)NCc1ncc(C(C)(C)C)o1` [Example 691, N-[(5-tert-Butyl-1,3-oxazol-2-yl)methyl]-6-methyl-4-[(1-methylcyclopropyl)amino]furo[2,3-d]pyrimidine-5-carboxamide] fall in the same range of IC50: 0.01 to 0.1 µM for the first, 0.01 to 0.1 µM for the second.

`Cc1oc2ncnc(NC3(C)CC3)c2c1C(=O)N1C[C@@H]2[C@H](C1)[C@H]2c1ccccc1` [Example 208, 6-Methyl-N-(1-methylcyclopropyl)-5-[(1R,5S,6S)-6-phenyl-azabicyclo[3.1.0]hexane-3-carbonyl]furo[2,3-d]pyrimidin-4-amine] and `Cc1oc2ncnc(NC3(C)CC3)c2c1C(=O)N1CC(c2ccc(C#N)cc2)C1` [Example 32, 4-(1-{6-Methyl-4-[(1-methylcyclopropyl)amino]furo[2,3-d]pyrimidine-5-carbonyl}azetidin-3-yl)benzonitrile] fall in the same range of IC50: 0.01 to 0.1 µM for the first, 0.01 to 0.1 µM for the second.

First: Cc1oc2ncnc(NC3(C)CC3)c2c1C(=O)Nc1ccc(N2CCOCC2)nn1 [Example 656, 6-Methyl-4-[(1-methylcyclopropyl)amino]-N-[6-(morpholin-4-yl)pyridazin-3-yl]furo[2,3-d]pyrimidine-5-carboxamide]
Second: Cc1oc2ncnc(NC3(C)CC3)c2c1C(=O)N1CCc2cc(O)ccc2C1 [Example 330, 2-{6-Methyl-4-[(1-methylcyclopropyl)amino]furo[2,3-d]pyrimidine-5-carbonyl}-1,2,3,4-tetrahydroisoquinolin-6-ol]
The IC50 of the first is higher: 0.1 to 1 µM for the first, 0.01 to 0.1 µM for the second.

`COc1ccc(CC2(NC(=O)c3c(C)oc4ncnc(NC5(C)CC5)c34)CC2)cc1` [Example 371, N-{1-[(4-Methoxyphenyl)methyl]cyclopropyl}-6-methyl-4-[(1-methylcyclopropyl)amino]furo[2,3-d]pyrimidine-5-carboxamide] was tested, and the IC50 was 0.01 to 0.1 µM.
